Values of other authors in patent publication US5977138A, “Ether muscarinic antagonists” (Schering Corporation, priority 1997, dated 1999).

Test system: m2 muscarinic receptor
Conditions: Baumgold et al., Eur. J. of Pharmacol., 251 (1994) 315-317

For `C[C@H]1CC[C@@H]2N(C1)C[C@H]1[C@@H]3C[C@H]4[C@@H](CC(=O)[C@H]5C[C@@H](Cl)CC[C@@]54C)[C@@H]3CC[C@H]1[C@]2(C)O` [3-α-chloroimperialine], the “m2 selective muscarinic antagonism” value is given as “highly selective m2 muscarinic antagonist”.
